# From US6737038B1, “Use of small molecule radioligands to discover inhibitors of amyloid-beta peptide production and for diagnostic imaging” (Bristol-Myers Squibb Company, priority 1998, dated 2004)
# Assays:
# [1] = system: HEK293 cells expressing APP 695 wt; test: Aβ production in HEK293 cells expressing APP 695 wt, compared with I-7T binding to membranes of the same cell line; type: cell-based
# Description: The concentration of Compound (I-7) leading to half-maximal inhibition (IC50) of proteolytic activity leading to Aβ production in HEK293 cells expressing APP 695 wt is similar to the concentration leading to half-maximal inhibition (IC50) of Compound (I-7T) binding to membranes derived from the same cell line. […] Also using a compound of Formula (I), we have discovered a macromolecule containing a binding site of action for compounds of Formula (I) critical to the processing of APP and the production of Aβ.
# bind specifically to a binding site on a macromolecule or a complex of macromolecules involved in APP processing to produce reduction of Aβ peptide production. For example, the concentration of Compound (I-7) leading to half-maximal inhibition (IC50) of Aβ production in HEK293 cells expressing APP 695 wt is similar to the concentration leading to half-maximal inhibition (IC50) of Compound (I-7T) binding to membranes derived from the same cell line.
# [2] = system: membrane binding site of Example 7; test: Radioligand Competition Binding Assay (RCB Assay)
# presenilin 1 = biological target: T1, presenilin 1 (Homo sapiens, UniProt P49768); test: immunoprecipitation of cross-linked polypeptides with antibodies to presenilin 1; type: binding; conditions: THP-1 membranes, Example 43T 30 nM plus competing compound
# T1 construct: endogenous in cells; host or cells: THP-1 cell membranes
# Protocol: The membranes were collected by centrifugation. The membranes were extracted with 50 mM Tris, pH 7.5 containing 100 mM KCl, 2 mM EDTA, 2% CHAPS and 1 complete protease inhibitor tablet per 25 ml buffer (COMPLETE™, Boehringer Mannheim; product number 1697 498)) for 1 hour at 4° C. The detergent soluble fraction was recovered by centrifugation (40,000 g, 30 min, 4° C.). The membrane extract was diluted one half with water. 500 ul of the membrane extract were pre-incubated with 10 ul of normal mouse IgG and 50 ul anti-mouse IgG Sepharose (Sigma) for 1 hour at 4° C. The supernatant was recovered by centrifugation. Subsequently, 10 ug of preimmune IgG (Sigma) or 10 ug of a monoclonal antibody to presenilin 1 was added in the presence of 50 ul anti-mouse IgG Sepharose. Examples of commercially available antibodies to presenilin 1 are Chemicon International: rat anti-human Presenilin 1 monoclonal antibody; product number MAB 1563; or Santa Cruz Biotechnology: goat anti Presenilin 1; product number SC-1244; or Santa Cruz Biotechnology: goat anti Presenilin 1; product number SC-1245. […] Radioactivity bound to the Sepharose beads was dissociated by boiling in SDS sample buffer (4×) containing 50 mM dithiothreitol. […]
Molecule,IC50 of Aβ production compared with IC50 of Compound (I-7T) binding to membranes from the same cell line [1],apparent Ki: RCB Assay conducted with Example 7T versus Example 11T [2],other results
"CCC[C@H](C(N)=O)[C@@H](CC(C)C)C(=O)N[C@H]1CCCCN(Cc2cccc(Oc3ccccc3)c2)C1=O [Example 7, (2R,3S) N1-[(3S)-Hexahydro-1-(3-phenoxybenzyl)-2-oxo-1H-azepin-3-yl]-2-(2-methylpropyl)-3-(propyl)-butanediamide]",similar,statistically significant correlation,–
CCC[C@H](C(N)=O)[C@@H](CC(C)C)C(=O)N[C@H]1CCCCN(Cc2cccc(C(=O)c3ccccc3)c2)C1=O [Example 11],–,statistically significant correlation,"IC50 in β APPA Assay versus RCB Assay with Example 7T as radiolabeled standard [2]: statistically significant correlation of IC50 values; cross-linking to the membrane binding site ([2]; THP-1 membranes, photolysis at 365 nm): cross-linked to the membrane binding site of Example 7"
"CC(NC(=O)Cc1cc(F)cc(F)c1)C(=O)NC1N=C(c2ccccc2)c2ccccc2N(C)C1=O (stereo not shown) [Example 98, reference compound]",–,statistically significant correlation,competition of cross-linking / immunoprecipitation of labeled bands (FIG. 2) (presenilin 1): not in the presence of Example 98
CC(C)C[C@H](CC(N)=O)C(=O)N[C@H]1CCCCN(Cc2cccc(Oc3ccccc3)c2)C1=O [Example 99],–,statistically significant correlation,–
"Tritiated (2S,3R) N1-[1,3-Dihydro-1-methyl-2-oxo-5-(phenyl)-2H-1,4-benzodiazepin-3-yl]-2-(2-methylpropyl)-3-(n-propyl)-butanediamide [Example 43T]",correlation holds,–,equivalency to Example 7T as radioactive tracer in the RCB Assay [2]: can be used instead of Example 7T
